The record followed here is patent publication US20240352309A1, “FLUORESCENT DYE, AND PREPARATION METHOD THEREFOR AND USE THEREOF” (FLUORESCENCE DIAGNOSIS (SHANGHAI) BIOTECH COMPANY LTD., priority 2021, published 2024).

Data set [1] is described as follows: Fluorescence emission in glycerol and methanol (Test Example 1). The conditions noted are these: for Fluorescence intensity ratio in glycerol and methanol: 1×10^−5 M in glycerol vs methanol, maximum excitation wavelength; for Emission wavelength: 1×10^−5 M, excited at maximum excitation wavelength of each dye. The format is physicochemical. The protocol:
The fluorescent dye (molecular rotors) prepared in Examples dye1-dye42 were dissolved in DMSO each to prepare a mother solution with a concentration of 1×10^−2 M, and each mother solution was added to glycerol and methanol respectively and was mixed well, and a solution with a final concentration of 1×10^−5 M was prepared.

Data set [2] can be described thus: Emission spectra in glycerol, wavelength adjustment (Test Example 3). The data set is classed as physicochemical. The conditions noted are these: 1×10^−5 M. The protocol:
The dye5, dye6, dye11, dye12, dye13, dye14, dye39 and dye42 were added into glycerol to prepare a solution with a final concentration of 1×10^−5 M, fluorescent dyes were excited with corresponding maximum excitation wavelength so as to obtain the emission spectra, and some of the emission spectra were normalized.

For data set [3], the system named is RNA aptamer in stable cell line (293T/17). The data set is described as follows: Flow detection of cells expressing RNA aptamer (Test Example 6). The data set is classed as cell-based. The conditions noted are these: 1 μM dye in PBS, 5 minutes.
Data set [4] can be described thus: Fluorescence emission in glycerol-diethanol mixed solutions of different viscosities (Test Example 2). The format is physicochemical. The conditions noted are these: glycerol-diethanol mixed solution, 16.4-946.0 cp, 1×10^−5 M. The text has this:
The dye7, dye9, dye12, dye25, dye40 were respectively added into a glycerol-diethanol mixed solution with the following viscosities: 16.4 cp (the volume ratio of glycerol was 0%), 29.8 cp (the volume ratio of glycerol was 20%), 64.5 cp (the volume ratio of glycerol was 40%), 143.5 cp (the volume ratio of glycerol was 60%), 377.0 cp (the volume ratio of glycerol was 80%), 946.0 cp (the volume ratio of glycerol was 100%), so as to prepare solutions with a final concentration of 1×10^−5 M; the fluorescence emission spectra under different viscosity conditions were shown as FIGS. 1, 3, 5, 7 and 9, wherein the emission wavelengths of the above-mentioned molecular rotors were respectively 620 nm, 576 nm, 650 nm, 670 nm and 720 nm. According to the results, fluorescence intensities of fluorescent dyes of the same concentration increase with ambient viscosity.

A short description of data set [5]: Fluorescence in solvents with different polarities (Test Example 2). The data set is classed as physicochemical. The conditions noted are these: methylbenzene, ethyl acetate, methyl alcohol, acetonitrile, dimethyl sulfoxide.
Data set [6] in a line: Background fluorescence in PBS (Test Example 4). The data set is classed as physicochemical. The conditions noted are these: 1×10^−5 M, relative to contrast dyes of the same group (dye48, dye49, dye50, dye47). The protocol: The dye1 and dye48; dye22 and dye49; dye40 and dye50; dye9, dye10 and dye47 were added to PBS to prepare a solution with a final concentration of 1×10^−5 M, corresponding maximum excitation wavelengths were used for exciting the dyes so that their fluorescence intensities in PBS could be detected, and normalization was performed with the strongest fluorescence intensity in each group of samples as 100, as shown respectively in FIGS. 21, 22, 23 and 24.

In data set [7] the test system is RNA aptamer in stable cell line (293T/17). Kind of data set: Confocal imaging of cells expressing RNA aptamer (Test Example 5). The data set is classed as cell-based. The conditions noted are these: 2 uM dye, 10 min incubation, confocal microscopy; cells not expressing aptamers do not fluoresce. The protocol:
Stable cell line (293T/17) continuously expressing RNA aptamer ([…]) and control cells (293T/17) were used, and cell culture media of dye1, dye12, dye25, and dye41 with a final concentration of 2 uM substituted original cell culture media after the cell line and control cells grew to a cell confluence of 90% under the conventional mammalian cell culture condition (37° C., 5% carbon dioxide, 100% relative humidity), and were incubated for 10 min (37° C., 5% carbon dioxide, 100% relative humidity).

`CN(CCO)c1cc2sc(/C=C3\NC(=S)NC3=O)cc2s1` [dye13]: in data set [1], the “Fluorescence intensity ratio in glycerol and methanol” value (“Fluorescence intensity ratio” for short) came to 874; the Emission wavelength was found to be 630 nm. The “shortening of emission wavelength” value in data set [2] (dye13 vs dye12, ring sulfur turned into nitrogen) is listed as 20 nm. In data set [3], the “dye background fluorescence before binding” value was “very low” and the “fluorescence after binding to RNA aptamer in cells” value (“fluorescence after binding” for short) is “notably activated”.
With `CC1=CC(C)(C)N(C)c2ccc(/C=C3\SC(=O)NC3=S)cc21` [dye7], in data set [1], the “Fluorescence intensity ratio” value came out at 754; the Emission wavelength amounted to 620 nm. In data set [4], the Emission wavelength is 620 nm and the “viscosity response of fluorescence intensity” value (from here on “viscosity response”) is reported as “sensitive to viscosity”. In addition, the “fluorescence intensity in solvents with different polarities” value in data set [5] was “weak”.
`CN(CCO)c1ccc2c(c1)C(C)(C)c1cc(/C=C3\SC(=O)NC3=O)ccc1-2` [dye34]: in data set [1], the “Fluorescence intensity ratio” value came out at 630; the Emission wavelength came to 680 nm. Also, in data set [3], the “dye background fluorescence before binding” value is on record as “very low” and the “fluorescence after binding” value is given as “notably activated”.
Consider `S=C1NC(=S)/C(=C/c2cc3c4c(c2)CCCN4CCC3)S1` [dye10], for which, in data set [1], the “Fluorescence intensity ratio” value was 638; the Emission wavelength was determined as 675 nm. Further, in data set [6], the “background fluorescence in PBS” value is recorded as “lower background fluorescence”.
For `CN1CCOc2cc(/C=C3\NC(=S)NC3=O)ccc21` [dye3], in data set [1], the “Fluorescence intensity ratio” value came to 637; the Emission wavelength came out at 580 nm. In data set [3], the “dye background fluorescence before binding” value is “very low” and the “fluorescence after binding” value is “notably activated”.
`CN(CCO)c1cc2sc(/C=C3\SC(=S)NC3=O)cc2s1` [dye12]: in data set [1], the “Fluorescence intensity ratio” value turned out to be 654; the Emission wavelength came out at 650 nm. Further, in data set [4], the Emission wavelength is 650 nm and the “viscosity response” value is on record as “sensitive to viscosity”. Further, the “fluorescence intensity in solvents with different polarities” value in data set [5] is on record as “weak”. The “fluorescence of cells expressing aptamers” value in data set [7] is “bright fluorescence”.
For the compound `CN(CCO)c1ccc2cc(/C=C3\SC(=S)NC3=O)sc2c1` [dye22], in data set [1], the “Fluorescence intensity ratio” value is listed as 687; the Emission wavelength stood at 605 nm. Also, the “background fluorescence in PBS” value in data set [6] is listed as “lower background fluorescence”.
With `CN1C(=S)N/C(=C\c2cc3c(s2)-c2ccc(N(C)CCO)cc2C3(C)C)C1=S` [dye40], in data set [1], the “Fluorescence intensity ratio” value worked out at 695; the Emission wavelength was found to be 730 nm. Also, in data set [4], the Emission wavelength was found to be 720 nm and the “viscosity response” value is “sensitive to viscosity”. The “fluorescence intensity in solvents with different polarities” value in data set [5] is “weak”. For the same compound, in data set [6], the “background fluorescence in PBS” value is on record as “lower background fluorescence”.
As for `CN1CCSc2cc(/C=C3\SC(=S)NC3=O)ccc21` [dye6], in data set [1], the “Fluorescence intensity ratio” value was 658; the Emission wavelength was found to be 608 nm. For the same compound, the “increase of emission wavelength” value in data set [2] (dye6 vs dye5, oxo-carbonyl turned into thiocarbonyl) is “about 50 nm”.
As for `CN(CCO)c1cc2c(s1)-c1sc(/C=C3\NC(=S)NC3=O)cc1C2(C)C` [dye41], in data set [1], the “Fluorescence intensity ratio” value came out at 594; the Emission wavelength is 735 nm. In addition, the “fluorescence of cells expressing aptamers” value in data set [7] is “bright fluorescence”.
Regarding `O=C1NC(=S)N/C1=C\c1cc2sc(N(CCO)CCO)cc2s1` [dye21], in data set [1], the “Fluorescence intensity ratio” value is given as 1098; the Emission wavelength is 635 nm. Also, in data set [3], the “dye background fluorescence before binding” value is reported as “very low” and the “fluorescence after binding” value was “notably activated”.
As to `CN(C)c1ccc2cc(/C=C3\SC(=S)N(CCC(=O)O)C3=S)oc2c1` [dye31], in data set [1], the “Fluorescence intensity ratio” value is 980; the Emission wavelength was found to be 685 nm.
For `CN1C(=O)S/C(=C\c2ccc(N(C)CCO)s2)C1=O` [dye1], in data set [1], the “Fluorescence intensity ratio” value was 695; the Emission wavelength was found to be 520 nm. Further, in data set [6], the “background fluorescence in PBS” value was “lower background fluorescence”. Besides, the “fluorescence of cells expressing aptamers” value in data set [7] is listed as “bright fluorescence”.
On to `CN(C)c1ccc2cc(/C=C3\NC(=S)NC3=S)oc2c1` [dye32], for which, in data set [1], the “Fluorescence intensity ratio” value came to 687; the Emission wavelength stood at 654 nm.
On the same counts, the results for `CN(CCO)c1cc2sc(/C=C3\SC(=S)NC3=S)cc2s1` [dye14] are 852 and 720 nm.
Regarding `O=C1NC(=S)N/C1=C\c1cc2c3c(c1)CCCN3CCC2` [dye9], in data set [1], the “Fluorescence intensity ratio” value is given as 951; the Emission wavelength was determined as 586 nm. Besides, in data set [4], the Emission wavelength turned out to be 576 nm and the “viscosity response” value was “sensitive to viscosity”. Further, in data set [5], the “fluorescence intensity in solvents with different polarities” value is “weak”. Also, in data set [6], the “background fluorescence in PBS” value is given as “lower background fluorescence”.
`CN1C(=O)/C(=C/c2cc3sc(N(C)CCOCCOCCO)cc3s2)SC1=S` [dye18]: in data set [1], the “Fluorescence intensity ratio” value stood at 1026; the Emission wavelength was found to be 588 nm.
For `CCN1C(=O)S/C(=C\c2cc3ccc(N(C)CCO)cc3o2)C1=O` [dye28], in data set [1], the “Fluorescence intensity ratio” value is reported as 682; the Emission wavelength worked out at 690 nm.
On the same counts, the results for `CN(CCNS(C)(=O)=O)c1ccc2cc(/C=C3\NC(=S)NC3=O)sc2c1` [dye23] are 985 and 640 nm.
As to `CN(C)c1ccc(C2=C(C#N)C(=C(C#N)C#N)OC2(C)C)cc1` [dye50, reference compound], the “dye background fluorescence before binding” value in data set [3] is “obvious”.
For the compound `CN(C)c1ccc2nc(/C=C3\SC(=N)NC3=N)oc2c1` [dye33], in data set [1], the “Fluorescence intensity ratio” value came to 461; the Emission wavelength is 622 nm.
